# Target: T1, hKv7.2/7.3 (Homo sapiens, UniProt O43525+O43526)
# T1 construct: host or cells: HEK cells, tetracycline-inducible expression
# Assay: Kv7.2/7.3 Activation Assay, QPatch planar patch-clamp single concentration screen
# Assay type: cell-based
# Details: increase in current over baseline, Kv7.2/Kv7.3 co-expressing HEK cells, compound concentration 3 μM, steady-state current at end of 2 s pulse to −30 mV
# Method: The ability of compounds to potentiate K-currents in Kv7.2/7.3 containing HEK cells was assessed using planar patch-clamp on the QPatch automated screening platform.
# Cell Line: The hKv7.2/7.3 cell line was obtained from Chantest (Cleveland, OH 44128) cat. #CT6147. These HEK cells will express the Kv7.2/7.3 ion channels when induced.
# Cell Culture: Cells were maintained in a media containing DMEM/F12; 50/50 (GIBCO cat. #11330), 10% Fetal Bovine Serum (FBS) (GIBCO cat. #26140), 100 units/mL Penicillin-Streptomycin (GIBCO cat. #15140), 0.005 mg/mL Blasticidin (INVIVOGEN cat. #ant-bl-1), 0.5 mg/mL Geneticin (GIBCO cat. #10131), 0.1 mg/mL Zeocin (GIBCO cat. #R25001). Cells used in the electrophysiology assay were maintained in a media without Blasticidin, Geneticin and Zeocin for 2 days and channel expression was induced by adding tetracycline (BIOLINE cat. #BIO-87030) at a final concentration of […]. Cells were grown in T-175 flask to ˜75% confluency. Currents were recorded 24 hours after channel induction.
# Compound Plates: Test compounds were prepared by performing serial dilutions on a Biomek NX^P (BECKMAN COULTER). Final dilutions were made in external recording solution with a final DMSO concentration of 0.1% DMSO. For single concentration screens each plate had 10 μM retigabine as a positive control and 0.1% DMSO as a negative control.
# Electrophysiology: On the day of the experiment cells were washed with Hank's Balanced Salt Solution (HBBS) (GIBCO cat. #14175) and harvested with Tryple (GIBCO cat. #12604). Cells were then centrifuged at 2000 rpm for 5 minutes and resuspended in CHO—S-SFM (GIBCO cat. #12052) at […]. Cells were stirred for 30 minutes before experiments were started. External recording solution contained (in mM): NaCl (145), KCl (4), CaCl2 (2), MgCl2 (1), HEPES (10) and Glucose (10); pH was adjusted to 7.4 with NaOH and the osmolarity was adjusted to 300-305 mOsM with sucrose if necessary. Internal solution contained (in mM): KCl (125), KF (10), EGTA (5), Na2ATP (5), MgCl2 (3.2), HEPES (5); pH was adjusted to 7.2 with KOH and the osmolarity was adjusted to 298-302 mOsM with sucrose.
# Potassium channel activity was measured on the QPatch HTX (Sophion Bioscience) using QPlates with 48-wells/plate. Each cell was taken as an independent experiment and only one compound was tested per well. Potassium channel activity was elicited by holding at −80 mV and stepping to −30 mV for 2 s followed by a 100 ms pulse to −120 mV.
# Single concentration screen: Baseline conditions were obtained by recording 5 sweeps in the external solution only, this was repeated for three applications of the external solution. The effect of test compounds on elicited current was then assessed by recording 5 sweeps in the presence of a 3 μM compound solution. The steady-state current at the end of the 2 s pulse to −30 mV was measured to determine the fold increase from baseline.
row,SMILES,QPatch Kv7.2/7.3 Activity
1,"COc1ccn2nc(NC(=O)CC(C)(O)C3CCCC3)c(C3CCC3)c2c1 (centres unmarked) [Example 26, N-(3-cyclobutyl-5-methoxypyrazolo[1,5-a]pyridin-2-yl)-3-cyclopentyl-3-hydroxybutanamide]",+ (2.0-3.99 (+))
2,"O=C(CC(O)(CF)CF)Nc1nn2ccc(C(F)(F)F)cc2c1C1CCC1 [Example 83, N-(3-cyclobutyl-5-(trifluoromethyl)pyrazolo[1,5-a]pyridin-2-yl)-4-fluoro-3-(fluoromethyl)-3-hydroxybutanamide]",+ (2.0-3.99 (+))
3,"Cc1ccccc1-c1c(NC(=O)CC(C)(C)O)nn2ccc(C(F)(F)F)cc12 [Example 51, 3-hydroxy-3-methyl-N-(3-(o-tolyl)-5-(trifluoromethyl)pyrazolo [1,5-a]pyridin-2-yl)butanamide]",+/− (1.2-1.99-fold (+/−))
4,"C[C@@](O)(CC(=O)Nc1nn2ccc(C(F)(F)F)cc2c1-c1ccc(F)cc1)c1ccccn1 [Example 37, (R)-N-(3-(4-fluorophenyl)-5-(trifluoromethyl)pyrazolo [1,5-a]pyridin-2-yl)-3-hydroxy-3-(pyridin-2-yl)butanamide]",++ (4.0-5.99 (++))
5,"CC(C)[C@H](C)C(=O)Nc1nn2ccc(C#N)cc2c1C1CCC1 [Example 8, (S)-N-(5-cyano-3-cyclobutylpyrazolo[1,5-a]pyridin-2-yl)-2,3-dimethylbutanamide]",+ (2.0-3.99 (+))
6,"CC(O)(CC(=O)Nc1nn2ccc(C(F)(F)F)cc2c1C1CCC1)c1ccccc1 (centres unmarked) [Example 27, N-(3-cyclobutyl-5-(trifluoromethyl)pyrazolo [1,5-a]pyridin-2-yl)-3-hydroxy-3-phenylbutanamide]",+ (2.0-3.99 (+))
7,"CC(C)(C)CC(=O)Nc1nn2c(C(F)F)cccc2c1C1CCC1 [Example 65, N-(3-cyclobutyl-7-(difluoromethyl)pyrazolo [1,5-a]pyridin-2-yl)-3,3-dimethylbutanamide]",++ (4.0-5.99 (++))
8,"CC(C)(C)CC(=O)Nc1nn2ccc(C(F)(F)F)cc2c1C#N [Example 80, N-(3-cyano-5-(trifluoromethyl)pyrazolo [1,5-a]pyridin-2-yl)-3,3-dimethylbutanamide]",− (<1.2-fold (−))
9,"CC(C)(O)CC(=O)Nc1nn2ccc(C(F)(F)F)cc2c1-c1ccccc1 [Example 13, 3-hydroxy-3-methyl-N-(3-phenyl-5-(trifluoromethyl)pyrazolo [1,5-a]pyridin-2-yl)butanamide]",+ (2.0-3.99 (+))
10,"O=C(CC(C(F)(F)F)C(F)(F)F)Nc1nn2ccc(C(F)(F)F)cc2c1C1CCC1 [Example 5, N-(3-cyclobutyl-5-(trifluoromethyl)pyrazolo [1,5-a]pyridin-2-yl)-4,4,4-trifluoro-3-(trifluoromethyl) butanamide]",+/− (1.2-1.99-fold (+/−))
11,"CC(C)(O)CC(=O)Nc1nn2ccc(C(F)(F)F)cc2c1-c1ccc(Cl)cc1 [Example 17, N-(3-(4-chlorophenyl)-5-(trifluoromethyl)pyrazolo [1,5-a]pyridin-2-yl)-3-hydroxy-3-methylbutanamide]",+ (2.0-3.99 (+))
12,"C[C@@](O)(CC(=O)Nc1nn2ccc(C#N)cc2c1C1CCC1)c1ccccn1 [Example 36, (R)-N-(5-cyano-3-cyclobutylpyrazolo[1,5-a]pyridin-2-yl)-3-hydroxy-3-(pyridin-2-yl)butanamide]",+ (2.0-3.99 (+))
13,"CC(C)(O)CC(=O)Nc1nn2ccc(C(F)(F)F)cc2c1C1CCC1 [Example 10, N-(3-cyclobutyl-5-(trifluoromethyl)pyrazolo [1,5-a]pyridin-2-yl)-3-hydroxy-3-methylbutanamide]",+ (2.0-3.99 (+))
14,"C[C@@](O)(CC(=O)Nc1nn2ccc(Cl)cc2c1-c1ccc(F)cc1)C(F)(F)F [Example 63, (R)-N-(5-chloro-3-(4-fluorophenyl)pyrazolo [1,5-a]pyridin-2-yl)-4,4,4-trifluoro-3-hydroxy-3-methylbutanamide]",+ (2.0-3.99 (+))
15,"CC(C)(O)CC(=O)Nc1nn2c(C(F)F)cccc2c1C1CCC1 [Example 72, N-(3-cyclobutyl-7-(difluoromethyl)pyrazolo [1,5-a]pyridin-2-yl)-3-hydroxy-3-methylbutanamide]",+/− (1.2-1.99-fold (+/−))
16,"CC(C)(C)CC(=O)Nc1nn2ccc(C(F)(F)F)cc2c1C1CCC1 [Example 2, N-(3-cyclobutyl-5-(trifluoromethyl)pyrazolo [1,5-a]pyridin-2-yl)-3,3-dimethylbutanamide]",+ (2.0-3.99 (+))
17,"CC(C)(O)CC(=O)Nc1nn2ccc(C(F)(F)F)cc2c1-c1ccc(OC(F)(F)F)cc1 [Example 49, 3-hydroxy-3-methyl-N-(3-(4-(trifluoromethoxy)phenyl)-5-(trifluoromethyl)pyrazolo [1,5-a]pyridin-2-yl)butanamide]",+ (2.0-3.99 (+))
18,"C[C@](O)(CC(=O)Nc1nn2ccc(C#N)cc2c1C1CCC1)c1ccccc1 [Example 30, (S)-N-(5-cyano-3-cyclobutylpyrazolo[1,5-a]pyridin-2-yl)-3-hydroxy-3-phenylbutanamide]",+ (2.0-3.99 (+))
19,"O=C(CC1(O)CCC1)Nc1nn2ccc(C(F)(F)F)cc2c1-c1ccc(F)cc1 [Example 22, N-(3-(4-fluorophenyl)-5-(trifluoromethyl)pyrazolo [1,5-a]pyridin-2-yl)-2-(1-hydroxycyclobutyl) acetamide]",+ (2.0-3.99 (+))
20,"CC(C)(O)CC(=O)Nc1nn2c(-c3ccc(F)cc3)cccc2c1C1CCC1 [Example 66, N-(3-cyclobutyl-7-(4-fluorophenyl)pyrazolo [1,5-a]pyridin-2-yl)-3-hydroxy-3-methylbutanamide]",− (<1.2-fold (−))
21,"CCC(O)(CC)CC(=O)Nc1nn2ccc(C(F)(F)F)cc2c1-c1ccc(F)cc1 [Example 77, 3-ethyl-N-(3-(4-fluorophenyl)-5-(trifluoromethyl)pyrazolo [1,5-a]pyridin-2-yl)-3-hydroxypentanamide]",+ (2.0-3.99 (+))
22,"C[C@](O)(CC(=O)Nc1nn2ccc(C(F)(F)F)cc2c1C1CCC1)c1ccccn1 [Example 41, (S)-N-(3-cyclobutyl-5-(trifluoromethyl)pyrazolo [1,5-a]pyridin-2-yl)-3-hydroxy-3-(pyridin-2-yl)butanamide]",++ (4.0-5.99 (++))
23,"CC(C)(O)CC(=O)Nc1nn2ccc(C(F)(F)F)cc2c1-c1cc(F)cc(F)c1 [Example 56, N-(3-(3,5-difluorophenyl)-5-(trifluoromethyl)pyrazolo [1,5-a]pyridin-2-yl)-3-hydroxy-3-methylbutanamide]",+ (2.0-3.99 (+))
24,"O=C(CC1(O)CCCC1)Nc1nn2ccc(C(F)(F)F)cc2c1C1CCC1 [Example 21, N-(3-cyclobutyl-5-(trifluoromethyl)pyrazolo [1,5-a]pyridin-2-yl)-2-(1-hydroxycyclopentyl) acetamide]",+ (2.0-3.99 (+))
25,"C[C@@](O)(CC(=O)Nc1nn2ccc(C(F)(F)F)cc2c1-c1ccccc1)c1ccccn1 [Example 38, (R)-3-hydroxy-N-(3-phenyl-5-(trifluoromethyl)pyrazolo [1,5-a]pyridin-2-yl)-3-(pyridin-2-yl)butanamide]",++ (4.0-5.99 (++))
26,"CC(C)(C)OC(=O)Nc1nn2ccc(Br)cc2c1C1CCC1 [Example 69, tert-butyl (5-bromo-3-cyclobutylpyrazolo[1,5-a]pyridin-2-yl)carbamate]",+ (2.0-3.99 (+))

# Reference: US20250066351A1, “PYRAZOLO[1,5-A]PYRIDIN-2,3-YL AMIDES AS KV7 CHANNEL ACTIVATORS” (Biohaven Therapeutics Ltd., priority 2022, published 2025)
